Source: US8796249B2, “TGR5 modulators and methods of use thereof” (Intercept Pharmaceuticals, Inc., priority 2008, dated 2014)
Where “and” joins values, the source holds several entries; their conditions need not be identical. Equal entries are not always repeated. Structures can show the parent of a compound that is named as a salt.

How the values were obtained:
HepG2 cell = HepG2 cell cytotoxicity, ATP decrease; type: cell-based; details: human
Procedure: (§1) Compounds of the invention were evaluated for cytotoxicity using standard methods known in the art. Specifically, cytotoxicity was evaluated using HEPG2 cells and monitoring ATP decrease and determining the EC50 value. […]

[1] = HepG2 cell cytotoxicity, ATP decrease; type: cell-based; details: human
Procedure: as §1

PXR = molecular target: T1, PXR (Homo sapiens, UniProt O75469); experiment: PXR ligands competition assay (binding assay)
T1 sequence (O75469 1-434): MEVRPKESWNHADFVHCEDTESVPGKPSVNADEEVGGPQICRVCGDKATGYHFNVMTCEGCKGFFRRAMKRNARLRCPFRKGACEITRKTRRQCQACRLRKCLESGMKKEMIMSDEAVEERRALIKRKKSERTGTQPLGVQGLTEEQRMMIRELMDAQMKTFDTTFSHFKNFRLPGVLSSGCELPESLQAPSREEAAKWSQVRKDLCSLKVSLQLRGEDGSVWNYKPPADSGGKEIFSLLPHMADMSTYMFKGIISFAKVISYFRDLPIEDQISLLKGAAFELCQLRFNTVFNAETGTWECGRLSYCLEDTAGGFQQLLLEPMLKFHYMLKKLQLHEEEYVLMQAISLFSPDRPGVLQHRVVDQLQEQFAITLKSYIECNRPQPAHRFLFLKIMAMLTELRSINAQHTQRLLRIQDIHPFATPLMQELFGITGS
Procedure: The selectivity of compounds of the invention was evaluated using assay methods known in the art. Specifically, the following assay methods were used: • FXR and LXR: Coactivator Recruitment (alphascreen); • TGR5: cAMP level on human intestinal cell line (NCI-H716); • PXR: Ligands Competition assay (Binding Assay) • CAR: Coactivator Recruitment (Lanthascreen)

hTGR5 [2] = molecular target: T2, hTGR5 (Homo sapiens, UniProt Q8TDU6); experiment: FRET-cAMP on TGR5 over-expressing HEH293 cells; type: cell-based
T2 sequence (Q8TDU6 1-330): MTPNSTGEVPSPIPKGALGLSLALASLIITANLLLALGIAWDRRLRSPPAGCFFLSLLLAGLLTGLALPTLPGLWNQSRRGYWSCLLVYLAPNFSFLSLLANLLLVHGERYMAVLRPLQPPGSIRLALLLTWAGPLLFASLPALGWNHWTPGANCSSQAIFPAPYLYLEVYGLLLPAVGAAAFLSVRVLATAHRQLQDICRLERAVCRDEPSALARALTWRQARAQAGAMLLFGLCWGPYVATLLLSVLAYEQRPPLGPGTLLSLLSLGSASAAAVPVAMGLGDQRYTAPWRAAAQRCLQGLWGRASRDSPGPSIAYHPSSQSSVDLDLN
Procedure: Assays were performed in triplicate or quadruplicate for each condition. EC50 values were determined by probit analysis. […] After subtracting the average value of the basal (vehicle-treated) condition, values were applied to EC50 and/or efficacy determinations. Calculation of average EC50 and comparison of the EC50 between different compounds were done after transformation to logarithms.

[3] = 1-Octanol/water partition coefficient (shake-flask); type: physicochemical; details: ionized species, pH 8
Procedure: Since the sulphate and sulphonated analogues are always ionised at all pH values the octanol/water partition coefficient was measured for all molecules in ionized form. 1-Octanol/water partition coefficient (log P) was evaluated using a conventional shake-flask procedure. […] The aqueous buffer was previously pre-saturated with 1-octanol, 5 ml of 1-octanol pre-saturated with water was then added and the samples were left to equilibrate for 2 weeks under continuous stirring at room temperature After centrifugation the two phases were carefully separated. BA concentration in the water phase was measured with HPLC-ESI ? MS/MS using C18 column (150 mm×2 mm i.d., 4 μm) and, as mobile phases, water containing 15 mM acetic acid pH 5 and acetonitrile. The flow rate was 150 μal/min and the column was maintained at 45° C. The mass spectrometry acquisition was performed in the multiple reaction monitoring mode using the ESI source in negative ionization.

hTGR5 [4] = molecular target: T2, hTGR5; experiment: Transactivation assay (CRE-driven luciferase reporter) on hTGR5; type: cell-based
Procedure: CHO cells were plated in 96-well plates at a density of 3.5×10^4 cells/well, cultured for 24 h, and then transfected with 150 ng of human (h) TGR5 expression plasmid (pCMVSPORT6/hTGR5) and 100 ng of cAMP-responsive element (CRE)-driven luciferase reporter plasmid (pCRE-Luc) in each well using Lipofectamine 2000 reagent (Invitrogen) according to the manufacturer's instructions. After 6 h incubation, cells were washed once with phosphate-buffered saline (PBS) and medium was exchanged for DMEM containing 0.1% (w/v) bovine serum albumin (BSA). After incubation for another 18 h, cells were treated for 5 h with different concentrations of each compound in fresh DMEM containing 0.1% (w/v) BSA.
For β-galactosidase assays, 10 μl of cell lysate was mixed with 100 μl of Buffer Z [60 mM Na2HPO4, 10 mM KCl, 1 mM MgSO4, 50 mM β-mercaptoethanol and 0.75 mg/ml o-nitrophenyl-β-D-galactopyranoside (ONPG)] and incubated at 37° C. for 0.5-3 h. Reactions were stopped by adding 50 μl of Stop buffer (1M Na2CO3) and the optical density at 420 nm was determined.
EC50 values were determined by probit analysis.

bovine serum albumin = molecular target: T3, bovine serum albumin (Bos taurus, UniProt P02769); experiment: Albumin binding by equilibrium dialysis; type: in vitro ADME; details: 100 μM BA in 5% bovine serum albumin-saline, pH 7.2
T3 construct: dissolved at a concentration of 100 μM in 5% bovine serum albumin-saline solution (pH 7.2); from tissue; host or cells: bovine serum (only from the protein's name)
T3 sequence (P02769 25-607): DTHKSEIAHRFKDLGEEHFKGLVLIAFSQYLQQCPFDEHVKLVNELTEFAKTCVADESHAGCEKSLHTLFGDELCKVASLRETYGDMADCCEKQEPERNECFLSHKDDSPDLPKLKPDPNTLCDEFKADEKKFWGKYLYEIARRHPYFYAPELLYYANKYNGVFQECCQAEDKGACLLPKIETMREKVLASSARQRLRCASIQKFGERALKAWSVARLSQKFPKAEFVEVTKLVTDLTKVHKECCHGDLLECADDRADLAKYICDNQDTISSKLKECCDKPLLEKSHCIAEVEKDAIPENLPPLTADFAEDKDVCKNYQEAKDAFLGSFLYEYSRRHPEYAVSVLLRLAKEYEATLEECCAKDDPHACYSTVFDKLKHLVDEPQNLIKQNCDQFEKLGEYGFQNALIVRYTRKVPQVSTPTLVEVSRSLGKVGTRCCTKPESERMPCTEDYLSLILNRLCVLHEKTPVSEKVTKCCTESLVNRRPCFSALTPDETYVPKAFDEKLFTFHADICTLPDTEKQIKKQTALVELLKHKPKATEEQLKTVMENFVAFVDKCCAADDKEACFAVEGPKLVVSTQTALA
Procedure: The extent of albumin binding was evaluated by equilibrium dialysis at a fixed BA-albumin ratio. BA was dissolved at a concentration of 100 μM in 5% bovine serum albumin-saline solution (pH 7.2) and left to stand for 24 h at 25° C. Two milliliters of this solution was dialyzed in cellulose sacs having a molecular weight cut-off of 12-14,000 against 25 ml of saline solution. The system was equilibrated by mechanical gently shaking for 72 h at 25° C. BA concentrations of the dialyzed solution (corresponding to the free unbound fraction) and of the starting solution were determined with HPLC-ESI-MS/MS in the same conditions of the previous analysis. The percent of albumin binding was calculate from the initial BA concentration and from the unbound concentration in the dialyzed fraction. All these compounds never less present an albumin binding compatible with a relatively fast hepatic uptake, similarly to natural occurring BA. Accordingly different kinetics (slower) of the liver uptake is expected.

Row | SMILES | EC50 (HepG2 cell) [µM] | EC50 [1] [µM] | EC50 (PXR) [µM] | EC50 (hTGR5 [2]) [µM] | LogPA- (1-octanol-water partition coefficient) [3] | EC50 (hTGR5 [4]) [µM] | Albumin Binding (bovine serum albumin) [%] | LogPA- (1-octanol-water partition coefficient) ([3]; Sodium Salt)
1 | CCC1C(O)C2C3CCC(C(C)CC(C)OS(=O)(=O)O)C3(C)CCC2C2(C)CCC(O)CC12 [Compound 2A, 3α,7α,23-trihydroxy-6α-ethyl-23(S)-methyl-24-nor-5β-cholan-23-sulfate Sodium Salt] | > 1000 | > 1000 | 21 | 0.025 | 2.3 | 1.2 | 97 | 
2 | CC[C@H]1[C@@H](O)[C@@H]2[C@H](C[C@H](O)[C@]3(C)[C@@H]([C@H](C)CCCS(=O)(=O)[O-])CC[C@@H]23)[C@@]2(C)CC[C@@H](O)C[C@@H]12.[Na+] [Compound 3A, 3α,7α,12α-trihydroxy-6α-ethyl-5β-cholan-24-sulfonate Sodium Salt] | > 1000 | > 1000 | 150 | 0.011 |  | 0.6 | 81 | 0.71 and 0.7
